The target of test [1] is T1, muscarinic receptors, NG108-15 cell membranes (m3 AChR) (Mus musculus, UniProt P32211).
T1 construct: membranes from NG108-15 cells; endogenous in cells; host or cells: NG108-15 neuroblastoma x glioma hybrid cells (crude membrane fraction)
T1 sequence (P32211 1-479): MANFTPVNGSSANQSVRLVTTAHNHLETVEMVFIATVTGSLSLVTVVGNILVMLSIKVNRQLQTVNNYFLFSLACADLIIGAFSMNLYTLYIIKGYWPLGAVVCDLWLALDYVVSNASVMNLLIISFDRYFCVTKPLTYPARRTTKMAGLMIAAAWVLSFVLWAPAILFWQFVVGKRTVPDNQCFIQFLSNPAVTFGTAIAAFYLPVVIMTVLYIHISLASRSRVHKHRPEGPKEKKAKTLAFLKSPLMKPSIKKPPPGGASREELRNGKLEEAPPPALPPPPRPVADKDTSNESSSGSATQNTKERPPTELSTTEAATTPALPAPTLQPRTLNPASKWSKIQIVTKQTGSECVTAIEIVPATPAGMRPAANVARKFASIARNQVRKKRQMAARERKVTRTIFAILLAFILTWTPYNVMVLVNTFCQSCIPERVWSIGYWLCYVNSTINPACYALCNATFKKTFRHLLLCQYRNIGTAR
The test is described as follows: Inhibition of [3H]-NMS binding to membranes from NG108-15 cells. As to conditions: NG108-15 cells; for inhibition at 50 µM: conc. of compound = 50 μM, read-out: binding (% inhibition of 3H-NMS binding); for inhibition at 100 µM: conc. of compounds = 100 μM. The source says: (§1) Compounds of the present invention were screened for their biological activity. Assay systems using SK-N-SH human neuroblastoma cells which express only m4 -AChRs coupled to PI turnover, and NG108-15 neuroblastoma x glioma cells which express only m3 AChRs coupled to adenylate cyclase inhibition were used.
(§2) Compounds of the present invention were also screened for their relative binding affinities. Assay systems which measured the inhibition of ^3 H-N-methylscopolamine (^3 H-NMS) binding to membranes from NG108-15 cells and membranes from SK-N-SH cells were used.
(§3) Inhibition of [^3 H]-NMS binding
(§4) Cells were grown to confluence, harvested, and a crude membrane fraction was obtained. […] The total volume was 1 mL. The incubation was terminated by rapid filtration over GF/B filters using a Brandel cell harvester. The filters were washed three times with ice-cold 0.9% NaCl, equilibrated in scintillation counting fluid and counted on a Beckman LS 5801 liquid scintillation counter at 47% efficiency. Non-specific binding was determined by coincubation with 1 μM atropine, and amounted to less than 15% of total counts. It was routinely subtracted from the total counts.

For test [2], the target named is T2, muscarinic receptors, SK-N-SH cell membranes (m4 AChR) (Homo sapiens, UniProt P20309).
T2 construct: membranes from SK-N-SH cells; endogenous in cells; host or cells: SK-N-SH human neuroblastoma cells (crude membrane fraction)
T2 sequence (P20309 whole entry): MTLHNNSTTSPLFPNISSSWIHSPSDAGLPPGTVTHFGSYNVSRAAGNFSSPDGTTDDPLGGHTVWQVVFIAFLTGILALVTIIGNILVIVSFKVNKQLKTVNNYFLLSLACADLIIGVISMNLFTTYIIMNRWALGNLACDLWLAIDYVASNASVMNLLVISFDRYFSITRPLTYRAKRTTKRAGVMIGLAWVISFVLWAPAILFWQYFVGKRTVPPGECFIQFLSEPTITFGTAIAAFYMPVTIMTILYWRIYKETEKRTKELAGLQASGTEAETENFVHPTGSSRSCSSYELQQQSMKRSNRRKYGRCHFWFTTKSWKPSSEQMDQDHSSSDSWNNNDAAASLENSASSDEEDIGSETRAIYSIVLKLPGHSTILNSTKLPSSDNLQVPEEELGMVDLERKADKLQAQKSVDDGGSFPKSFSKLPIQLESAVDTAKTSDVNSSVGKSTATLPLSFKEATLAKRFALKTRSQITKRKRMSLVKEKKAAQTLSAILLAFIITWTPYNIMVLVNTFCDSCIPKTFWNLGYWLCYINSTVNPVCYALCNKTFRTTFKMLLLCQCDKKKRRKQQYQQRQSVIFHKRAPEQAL
Briefly: Inhibition of [3H]-NMS binding to membranes from SK-N-SH cells. As to conditions: SK-N-SH cells; for inhibition at 50 µM: conc. of compound = 50 μM, read-out: binding (% inhibition of 3H-NMS binding); for inhibition at 100 µM: conc. of compounds = 100 μM.
Text: as §1, §2, §3, §4

A further test has as its system muscarinic receptors. As to conditions: literature; cited from earlier work.
The subject of the next test is M1 AChRs. As to conditions: M1 AChR; cited from earlier work.
The next test deals with M2 AChRs. As to conditions: M2 AChR; cited from earlier work.
The next test deals with m4 AChR. The following applies: cited from earlier work.
In the next test the test system is m3 AChR. The following applies: cited from earlier work.
The subject of the next test is m5 AChR. As to conditions: cited from earlier work.
The test system of the next test is m2 AChR. The following applies: cited from earlier work.
Test [3] deals with NG108-15 neuroblastoma x glioma cells (m3 AChR). Briefly: Inhibition of PGE1-stimulated cAMP levels in NG108-15 cells. The test is classed as cell-based. As to conditions: for inhibition at 100 µM: NG108-15, NG108-15 cells, read-out: cAMP Inhib; for inhibition at 100 µM / cAMP Inhib: relative to control with no compounds added, conc. of compounds = 100 μM; for cAMP Inhib: NG108-15 cells, 100 µM. On the procedure: (§5) Compounds of the present invention were tested for their binding affinities and activation of second messengers in selective muscarinic cholinergic receptor systems. It is believed that m1 -, m4 -, and m5 AChRs couple exclusively to PI turnover, whereas m2 - and m3 -AChRs couple only to adenylate cyclase inhibition.
as §1
Inhibition of PGE1 -stimulated cAMP levels in NG108-15 cells
Cells were plated in 24-well plates and were grown to 90% confluence. The growth media was then replaced with a solution of 1 mM IBMX in DMEM-Hepes (0.5 mL per well) and the cells were incubated for 10 min at 37° C. Agonists were then added at a final concentration of 100 μM, along with PGE1 (final conc, 5 μM), and the cells were incubated for a further 15 min at 37° C. The reaction Was terminated by aspirating the solution and adding 0.5 mL of 0.1N HCl. In order to extract the cAMP from the cells, they were incubated in 0.1 N HCl for 30 min at room temperature. An aliquot (35 50 μL) was removed, lyophilized, and assayed for cAMP by radioimmunoassay.
(In general: Cyclic AMP is a second messenger, typically raised through Gs and lowered through Gi signalling.)

Test [4] deals with SK-N-SH human neuroblastoma cells (m4 AChR). Briefly: Stimulation of PI turnover in SK-N-SH cells. The test is classed as cell-based. The following applies: Homo sapiens, 0.5 h, SK-N-SH cells, conc. of compounds = 100 μM. As for the experimental part:
as §5, §1
Stimulation of PI turnover in SK-N-SH cells
Cells were plated into 24-well plates at 100,000 cells per well. After 24 hours, they were labeled overnight with 2 μCi per well of [^3 H]-myo-inositol (American Radiolabeled Chemicals, Inc., St. Louis, Mo.; 15 Ci/mM; 2 μL of stock per mL of media). The cells were then rinsed twice with 10 mM LiCl in DMEM-Hepes and the cells were incubated in this solution for 5 min at 37° C. The indicated compound was then added at a final concentration of 100 μM and the cells were incubated for another 30 min at 37° C. The reaction was stopped by aspirating the solution and adding cold methanol to the cells. After transferring the cells to a glass tube and sonicating briefly, chloroform and water were added to make a two-phase system. The upper aqueous phase was applied to 0.6 mL anion exchange columns (AG X8, Bio-Rad) and the columns were washed and total inositol phosphates were eluted with 1M ammonium formate and 0.1M formic acid.

Test [5] has as its system NG108-15 neuroblastoma x glioma cells (m3 AChR). The test is described as follows: Inhibition of PGE1-stimulated cAMP levels in NG108-15 cells. As to conditions: 0.25 h; NG108-15 cells; data relative to OXO-M; conc. of compounds = 50 μM; read-out: cAMP Inhib (relative to OXO-M). It is filed as cell-based.
Setting [6] is: percent relative to the activity of OXO-M, read-out: Pi turnover.

Like-named read-outs stand apart in the source and are kept apart here.

In the case of `CC(=O)N(C)C(C)C#CCN1CCCC1` (centres unmarked) [BM 5, reference compound], in [1], the inhibition at 50 µM came out at 91 ± 1% and the inhibition at 100 µM is 97 ± 2%. Moreover, in test [2], the inhibition at 50 µM was determined as 95 ± 1% and the inhibition at 100 µM was 99 ± 1%. Besides, the “muscarinic activity, in words” value in the test on muscarinic receptors was “potent muscarinic agent with presynaptic antagonist and postsynaptic agonist activity”.
Consider `CN1CCN(CC(=O)N2c3ccccc3C(=O)Nc3cccnc32)CC1` [pirenzepine], for which the affinity for pirenzepine result is recorded as “high-affinity” in the test on M1 AChRs; “low-affinity” in the test on M2 AChRs; “high affinity” in the test on m4 AChR; “intermediate affinity” with m3 AChR; “intermediate affinity” in the test on m5 AChR; “low affinity” in the test with m2 AChR.
Take `C[N+](C)(C)CC#CCN1CCCC1=O` [OXO-M, oxotremorine-M, reference compound]: the inhibition at 100 µM worked out at 64.1 ± 1.9% in test [3], 96.2 ± 2.1% in test [1] and 52.1 ± 1.2% in test [2]. Moreover, in [3], the “cAMP Inhib” value turned out to be 65±3%. In addition, the inhibition at 50 µM in test [1] was 74 ± 3%; in [2] it was 49 ± 12%. The Emax at 100 µM came out at 100% in test [4] (data relative to OXO-M, read-out: Pi turnover (relative to OXO-M)) and 100% in test [4] (setting [6]). For the same compound, in [5], the Emax at 50 µM was found to be 100%.
Turning to `CC(=O)N(C)CC#CCN1CCCC1` [UH 5, reference compound], the “agonist selectivity, in words” value in test [3] (NG108-15 (cAMP) versus SK-N-SH (PI turnover)) is recorded as “acted as an agonist in both systems”. For the same compound, in test [3], the inhibition at 100 µM was determined as 63.2 ± 6% and the “cAMP Inhib” value amounted to 63%. Further, the Emax at 100 µM in test [4] (setting [6]) is 54%. Also, the “muscarinic activity, in words” value with muscarinic receptors was “maintains agonist activity and is nearly equi-potent to oxotremorine”.
For the compound `O=C1CCCN1CC#CCN1CCCC1` [oxotremorine], the “muscarinic activity, in words” value with muscarinic receptors was “potent and moderately selective central muscarinic agonist”.
